From US11111251B2, “Positive allosteric modulators of the muscarinic acetylcholine receptor M1” (Vanderbilt University, priority 2016, dated 2021) come the findings set out here.

This experiment has as its target T1, human mAChR M1 (Homo sapiens, UniProt P11229).
T1 sequence (P11229 1-460): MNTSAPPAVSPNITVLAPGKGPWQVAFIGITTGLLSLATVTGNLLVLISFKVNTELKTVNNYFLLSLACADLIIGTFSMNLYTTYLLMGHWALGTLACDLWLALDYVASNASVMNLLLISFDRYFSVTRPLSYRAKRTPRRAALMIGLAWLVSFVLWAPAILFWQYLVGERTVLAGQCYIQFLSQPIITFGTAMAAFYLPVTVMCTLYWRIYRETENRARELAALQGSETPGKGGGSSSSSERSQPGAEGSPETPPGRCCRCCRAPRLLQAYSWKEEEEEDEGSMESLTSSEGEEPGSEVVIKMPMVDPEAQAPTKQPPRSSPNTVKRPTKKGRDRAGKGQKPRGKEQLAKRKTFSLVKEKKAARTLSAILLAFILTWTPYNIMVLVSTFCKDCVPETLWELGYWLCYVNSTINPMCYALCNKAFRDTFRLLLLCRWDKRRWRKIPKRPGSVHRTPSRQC
The experiment can be described thus: mAChR M1 cell-based functional assay: calcium mobilization, positive allosteric modulator mode (increase in EC20 acetylcholine response). To be noted: for Emax: read-out: Human M1 Emax (%). Put shortly: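 PAM potency reflects the concentration-dependent increase in calcium response to an EC20 acetylcholine challenge, given 144 s into a 300 s read after compound addition at 4 s (EC80 follows at 230 s). Cells were hM1-expressing CHO-K1, loaded 50 min with Fluo-4 AM. Curves used 11 points at 1:3 dilutions and four-parameter logistic fitting.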
(Calcium flux is commonly read through the fluorescence of an indicator in the cells.)

[1] abbreviates: Table 2, human M1, read-out: Human M1 EC50.
Setting [2] is: Table 1, mAChR M1 cell-based functional assay, PAM mode, species not given, read-out: EC50.

Each structure is given as a SMILES string. Like-named read-outs stand apart in the source and are kept apart here.

The term EC50 denotes the midpoint of the concentration-response curve. As a reminder, the Emax is the size of the effect at its maximum, as opposed to the concentration needed. For `Cn1ncc2nc(C(=O)N[C@H]3CCOC[C@@H]3O)cc(Cc3ccc(-n4cccn4)cc3)c21` [Compound 499, N-[(3R,4S)-3-hydroxytetrahydropyran-4-yl]-1-methyl-7-[(4-pyrazol-1-ylphenyl)methyl]-pyrazolo[4,3-b]pyridine-5-carboxamide], the EC50 under setting [1] was determined as 267 nM. Under “Table 2, human M1”, the Emax is 65.3%.

Regarding `Cc1csc2c(Cc3ccc(-n4cccn4)cc3)cc(C(=O)NCC3CCO3)nc12` (centres unmarked) [Compound 324, 3-methyl-N-(oxetan-2-ylmethyl)-7-[(4-pyrazol-1-ylphenyl)methyl]thieno[3,2-b]pyridine-5-carboxamide], under setting [1], the EC50 was 1050 nM. Besides, the Emax (Table 2, human M1) was 78.9%.

For `O=C(N[C@H]1CCOC[C@@H]1O)c1cc(Cc2ccc(-c3cscn3)cc2)c2sccc2n1` [Compound 215, N-[(3R,4S)-3-hydroxytetrahydropyran-4-yl]-7-[(4-thiazol-4-ylphenyl)methyl]thieno[3,2-b]pyridine-5-carboxamide], the EC50 under setting [1] worked out at 10.1 nM. For the same molecule, for the setting “Table 2, human M1”, the maximal response (Emax) turned out to be 72.7%.

As to `O=C(N[C@@H]1CC[C@H]1O)c1cc(Cc2ccc(-c3cscn3)cc2)c2sccc2n1` [Compound 200, N-[(1R,2R)-2-hydroxycyclobutyl]-7-[(4-thiazol-4-ylphenyl)methyl]thieno[3,2-b]pyridine-5-carboxamide], the EC50 under setting [1] came to 116 nM. For the setting “Table 2, human M1”, the Emax was found to be 89.4%.

Turning to `CN1CC(NC(=O)c2cc(Cc3ccc(-n4cccn4)cc3)c3sccc3n2)C1` [Compound 435, N-(1-methylazetidin-3-yl)-7-[(4-pyrazol-1-ylphenyl)methyl]thieno[3,2-b]pyridine-5-carboxamide], the EC50 under setting [1] was determined as 2290 nM. Moreover, the Emax (Table 2, human M1) worked out at 76.9%.

With `O=C(NC1CCCOC1)c1cc(Cc2ccc(-n3cccn3)cc2)c2sccc2n1` (centres unmarked) [Compound 447, 7-[(4-pyrazol-1-ylphenyl)methyl]-N-tetrahydropyran-3-yl-thieno[3,2-b]pyridine-5-carboxamide], under setting [1], the EC50 was 1100 nM. Moreover, the Emax (Table 2, human M1) was 73.9%.

In the case of `COCC(C)NC(=O)c1cc(Cc2ccc(-c3cncs3)cc2)c2sccc2n1` (centres unmarked) [Compound 406, N-(2-methoxy-1-methyl-ethyl)-7-[(4-thiazol-5-ylphenyl)methyl]thieno[3,2-b]pyridine-5-carboxamide], under setting [1], the concentration giving a half-maximal response (EC50) came out at 5050 nM. In addition, where the note is “Table 2, human M1”, the Emax was 59.1%.

Consider `Cn1cc(-c2cc(F)c(Cc3cc(C(=O)N[C@H]4CCOC[C@@H]4O)nc4ccsc34)c(F)c2)cn1` [Compound 59, 7-[[2,6-difluoro-4-(1-methylpyrazol-4-yl)phenyl]methyl]-N-[(3R,4S)-3-hydroxytetrahydropyran-4-yl]thieno[3,2-b]pyridine-5-carboxamide], for which the EC50 under setting [1] was 2840 nM. Besides, where the note is “Table 2, human M1”, the Emax turned out to be 88.5%.

As to `O=C(NC1CCOCC1)c1cc(Cc2c(F)cc(-c3cscn3)cc2F)c2sccc2n1` [Compound 271, 7-[(2,6-difluoro-4-thiazol-4-yl-phenyl)methyl]-N-tetrahydropyran-4-yl-thieno[3,2-b]pyridine-5-carboxamide], the half-maximal effective concentration (EC50) under setting [1] is 312 nM. Moreover, where the note is “Table 2, human M1”, the Emax came out at 45.5%.

Consider `Cc1ccc(Cc2cc(C(=O)N[C@H]3CC[C@@H]3O)nc3c(C)csc23)cn1` [Compound 99], for which, under setting [1], the 50% effective concentration (EC50) turned out to be 7300 nM. The Emax (Table 2, human M1) was found to be 77.7%.

As to `Cn1ccc(-c2ccc(Cc3cc(C(=O)NC[C@@H]4CCCN4)nc4ccsc34)cn2)n1` [Compound 426], the EC50 under setting [1] stood at 290 nM. The Emax (Table 2, human M1) was 62.7%.

Turning to `Cc1csc2c(Cc3ccc(-c4ccn(C)n4)cc3)cc(C(=O)NC3CCOCC3)nc12` [Compound 302, 3-methyl-7-[[4-(1-methylpyrazol-3-yl)phenyl]methyl]-N-tetrahydropyran-4-yl-thieno[3,2-b]pyridine-5-carboxamide], the EC50 under setting [1] came out at 405 nM. Moreover, for the setting “Table 2, human M1”, the Emax worked out at 69.9%.

As to `Cn1ccc2nc(C(=O)N[C@@H]3CCOC3)cc(Cc3ccc(-c4cscn4)cc3)c21` [Compound 465, 1-methyl-N-[(3R)-tetrahydrofuran-3-yl]-7-[(4-thiazol-4-ylphenyl)methyl]pyrrolo[3,2-b]pyridine-5-carboxamide], the EC50 under setting [1] came out at 1870 nM. Under “Table 2, human M1”, the maximal response (Emax) was determined as 72%.

In the case of `Cc1nc(-c2ccc(Cc3cc(C(=O)N[C@@H]4CCOC4)nc4ccsc34)cc2)cs1` [Compound 183, 7-[[4-(2-methylthiazol-4-yl)phenyl]methyl]-N-[(3R)-tetrahydrofuran-3-yl]thieno[3,2-b]pyridine-5-carboxamide], under setting [1], the EC50 stood at 2530 nM. Under “Table 2, human M1”, the Emax turned out to be 67.3%.

As to `Cc1ccc(Oc2cc(C(=O)NCC3CCCO3)nc3ccsc23)cn1` (centres unmarked) [Compound 35, 7-[(6-methyl-3-pyridyl)oxy]-N-(tetrahydrofuran-2-ylmethyl)thieno[3,2-b]pyridine-5-carboxamide], under setting [2], the concentration for a half-maximal effect (EC50) was greater than 10000 nM.

For `Cc1ccc(C(F)c2cc(C(=O)N[C@@H]3CCCC[C@H]3O)nc3ccsc23)cn1` (stereo partly drawn) [Compound 85, 7-[fluoro-(6-methyl-3-pyridyl)methyl]-N-[(1R,2R)-2-hydroxycyclohexyl]thieno[3,2-b]pyridine-5-carboxamide], the EC50 under setting [1] amounted to 80.1 nM. Besides, the Emax (Table 2, human M1) turned out to be 87.9%.

`Cn1cc(-c2ccc(Cc3cc(C(=O)N[C@H]4CCCC[C@@H]4O)nc4ccsc34)cn2)cn1` [Compound 224, N-[(1S,2S)-2-hydroxycyclohexyl]-7-[[6-(1-methylpyrazol-4-yl)-3-pyridyl]methyl]thieno[3,2-b]pyridine-5-carboxamide]: under setting [1], the EC50 worked out at 13.4 nM. Besides, the Emax (Table 2, human M1) was found to be 71.2%.

As for `Cc1ccc(Oc2cc(C(=O)NC3CCCNC3=O)nc3ccsc23)cn1` (centres unmarked) [Compound 29, 7-[(6-methyl-3-pyridyl)oxy]-N-(2-oxo-3-pipendyl)thieno[3,2-b]pyridine-5-carboxamide], the EC50 under setting [2] is greater than 10000 nM.

Regarding `CN(C(=O)c1cc(Cc2ccc(-c3cscn3)cc2)c2sccc2n1)C1CCOCC1` [Compound 214, N-methyl-N-tetrahydropyran-4-yl-7-[(4-thiazol-4-ylphenyl)methyl]thieno[3,2-b]pyridine-5-carboxamide], the EC50 under setting [1] was determined as 5950 nM. In addition, the Emax (Table 2, human M1) was found to be 81.1%.

In the case of `Cn1ccc(-c2ccc(Cc3cc(C(=O)N[C@@H]4CCOC4)nc4ccsc34)cn2)n1` [Compound 418, 7-[[6-(1-methylpyrazol-3-yl)-3-pyridyl]methyl]-N-[(3R)-tetrahydrofuran-3-yl]thieno[3,2-b]pyridine-5-carboxamide], under setting [1], the EC50 was 5130 nM. The Emax (Table 2, human M1) is 67%.

Regarding `Cc1nn(C)cc1-c1ccc(Cc2cc(C(=O)N[C@H]3CCCC[C@@H]3O)nc3ccsc23)cc1` [Compound 250], the EC50 under setting [1] was greater than 10000 nM. Besides, the Emax (Table 2, human M1) came out at 48.1%.

As to `Cc1ccc(Cc2cc(C(=O)NC3CC4(COC4)C3)nc3ccsc23)cn1` [Compound 261, 7-[(6-methyl-3-pyridyl)methyl]-N-(2-oxaspiro[3.3]heptan-6-yl)thieno[3,2-b]pyridine-5-carboxamide], the EC50 under setting [1] was greater than 10000 nM. The Emax (Table 2, human M1) was 52.8%.

For `Cn1cc(-c2ccc(Cc3cc(C(=O)N[C@@H]4CCCOC4)nc4ccsc34)cn2)cn1` [Compound 361, 7-[[6-(1-methylpyrazol-4-yl)-3-pyridyl]methyl]-N-[(3R)-tetrahydropyran-3-yl]thieno[3,2-b]pyridine-5-carboxamide], under setting [1], the EC50 turned out to be 114 nM. Besides, the Emax (Table 2, human M1) is 86.9%.
